# Experimental data: PubChem BioAssay AID1963834 (Molecular Pharmacology Branch, DTP, NCI, 2024)
# pIC50: −log10 of the molar value.
# System: 873145-292-R-J1-PDC complex spheroid viability
# Test: Anticancer human tumor 873145-292-R-J1-PDC patient-derived renal clear cell carcinoma cell line growth inhibition [POLQ]
# Settings: for pIC50: curve of first compound; for viability, T/C: stronger effect = lower value
# In short: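 Three-cell-type spheroids modelling solid tumor plus stroma served as the readout system; POL inhibitors were tested individually and in combination, concentration ranges set by clinical Cmax where known.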
# [1] = second compound 0.0316 µM, first compound 0.0316 µM
# [2] = second compound 0.0316 µM, first compound 0.1 µM
# [3] = second compound 0.0316 µM, first compound 0.316 µM
# [4] = second compound 0.0316 µM, first compound 1 µM
# [5] = second compound 0.1 µM, first compound 0.0316 µM
# [6] = second compound 0.1 µM, first compound 0.1 µM
# [7] = second compound 0.1 µM, first compound 0.316 µM
# [8] = second compound 0.1 µM, first compound 1 µM
# [9] = second compound 0.316 µM, first compound 0.0316 µM
# [10] = second compound 0.316 µM, first compound 0.1 µM
# [11] = second compound 0.316 µM, first compound 0.316 µM
# [12] = second compound 0.316 µM, first compound 1 µM
# [13] = second compound 1 µM, first compound 0.0316 µM
# [14] = second compound 1 µM, first compound 0.1 µM
# [15] = second compound 1 µM, first compound 0.316 µM
# [16] = second compound 1 µM, first compound 1 µM
# [17] = second compound 3.16 µM, first compound 0.0316 µM
# [18] = second compound 3.16 µM, first compound 0.1 µM
# [19] = second compound 3.16 µM, first compound 0.316 µM
# [20] = second compound 3.16 µM, first compound 1 µM
# [21] = second compound 10 µM, first compound 0.0316 µM
# [22] = second compound 10 µM, first compound 0.1 µM
# [23] = second compound 10 µM, first compound 0.316 µM
# [24] = second compound 10 µM, first compound 1 µM
# 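Also: spheroids exposed to compounds for 7 days before viability readout.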
# 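For viability, T/C in this document: luminescence signal used as surrogate for viable cell content; 100% = DMSO vehicle control viability.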
smiles,measurement,setting,value
CNCc1ccc(-c2[nH]c3cc(F)cc4c3c2CCNC4=O)cc1 + COC1C(OC(N)=O)C(O)C(Oc2ccc3c(O)c(NC(=O)c4ccc(O)c(CC=C(C)C)c4)c(=O)oc3c2C)OC1(C)C,pIC50,second compound 0.0316 µM,< 5.00
same,pIC50,second compound 0.1 µM,< 5.00
same,pIC50,second compound 0.316 µM,< 5.00
same,pIC50,second compound 1 µM,< 5.00
same,pIC50,second compound 3.16 µM,< 5.00
same,pIC50,second compound 10 µM,< 5.00
same,"viability, T/C",[1],106%
same,"viability, T/C",[2],96.8%
same,"viability, T/C",[3],102%
same,"viability, T/C",[4],96.7%
same,"viability, T/C","second compound 0.0316 µM, first compound 3.16 µM",90.7%
same,"viability, T/C","second compound 0.0316 µM, first compound 10 µM",91.6%
same,"viability, T/C",[5],97%
same,"viability, T/C",[6],97.8%
same,"viability, T/C",[7],88%
same,"viability, T/C",[8],95.6%
same,"viability, T/C","second compound 0.1 µM, first compound 3.16 µM",88%
same,"viability, T/C","second compound 0.1 µM, first compound 10 µM",98.3%
same,"viability, T/C",[9],94.9%
same,"viability, T/C",[10],89.4%
same,"viability, T/C",[11],95.8%
same,"viability, T/C",[12],89.2%
same,"viability, T/C","second compound 0.316 µM, first compound 3.16 µM",96.1%
same,"viability, T/C","second compound 0.316 µM, first compound 10 µM",104%
same,"viability, T/C",[13],90.4%
same,"viability, T/C",[14],98.5%
same,"viability, T/C",[15],118%
same,"viability, T/C",[16],86.7%
same,"viability, T/C","second compound 1 µM, first compound 3.16 µM",95.7%
same,"viability, T/C","second compound 1 µM, first compound 10 µM",102%
same,"viability, T/C",[17],99.5%
same,"viability, T/C",[18],95.8%
same,"viability, T/C",[19],98.4%
same,"viability, T/C",[20],92.2%
same,"viability, T/C","second compound 3.16 µM, first compound 3.16 µM",98.1%
same,"viability, T/C","second compound 3.16 µM, first compound 10 µM",96.1%
same,"viability, T/C",[21],98.5%
same,"viability, T/C",[22],101%
same,"viability, T/C",[23],92.4%
same,"viability, T/C",[24],94.7%
same,"viability, T/C","second compound 10 µM, first compound 3.16 µM",98.5%
same,"viability, T/C","second compound 10 µM, first compound 10 µM",102%
COc1cccc(OCCCN)c1-c1cc(Nc2cnc(C#N)cn2)n[nH]1 + COC1C(OC(N)=O)C(O)C(Oc2ccc3c(O)c(NC(=O)c4ccc(O)c(CC=C(C)C)c4)c(=O)oc3c2C)OC1(C)C,pIC50,second compound 0.0316 µM,< 6.00
same,pIC50,second compound 0.1 µM,< 6.00
same,pIC50,second compound 0.316 µM,< 6.00
same,pIC50,second compound 1 µM,< 6.00
same,pIC50,second compound 3.16 µM,< 6.00
same,pIC50,second compound 10 µM,< 6.00
same,"viability, T/C","second compound 0.0316 µM, first compound 0.00316 µM",102%
same,"viability, T/C","second compound 0.0316 µM, first compound 0.01 µM",82.4%
same,"viability, T/C",[1],62.8%
same,"viability, T/C",[2],61.3%
same,"viability, T/C",[3],61%
same,"viability, T/C",[4],68.7%
same,"viability, T/C","second compound 0.1 µM, first compound 0.00316 µM",106%
same,"viability, T/C","second compound 0.1 µM, first compound 0.01 µM",93.8%
same,"viability, T/C",[5],71.1%
same,"viability, T/C",[6],71.5%
same,"viability, T/C",[7],62.1%
same,"viability, T/C",[8],72.3%
same,"viability, T/C","second compound 0.316 µM, first compound 0.00316 µM",104%
same,"viability, T/C","second compound 0.316 µM, first compound 0.01 µM",84.8%
same,"viability, T/C",[9],64.7%
same,"viability, T/C",[10],57.8%
same,"viability, T/C",[11],71.1%
same,"viability, T/C",[12],62.1%
same,"viability, T/C","second compound 1 µM, first compound 0.00316 µM",97.9%
same,"viability, T/C","second compound 1 µM, first compound 0.01 µM",76.3%
same,"viability, T/C",[13],62.5%
same,"viability, T/C",[14],62.4%
same,"viability, T/C",[15],58.7%
same,"viability, T/C",[16],72.9%
same,"viability, T/C","second compound 3.16 µM, first compound 0.00316 µM",108%
same,"viability, T/C","second compound 3.16 µM, first compound 0.01 µM",72%
same,"viability, T/C",[17],71.9%
same,"viability, T/C",[18],63.8%
same,"viability, T/C",[19],68.4%
same,"viability, T/C",[20],68.7%
same,"viability, T/C","second compound 10 µM, first compound 0.00316 µM",90.8%
same,"viability, T/C","second compound 10 µM, first compound 0.01 µM",80%
same,"viability, T/C",[21],73.1%
same,"viability, T/C",[22],62.6%
same,"viability, T/C",[23],66.1%
same,"viability, T/C",[24],78.3%
